Where two headings read alike, the source gives them in different places.
How the values were obtained:
[1] = Washing-out properties: residuals of Pres. (18) components after rinsing the housing; settings: to a 50 kg person
Experimental: In a safety evaluation it assumed that the entire volume of a housing is filled with the aqueous antimicrobial preservation composition as the worst case. […] (18). The housing was inserted in its device for extra-corporeal circulation treatment and rinsed with 900 ml of a Ringer-Acetate solution (Pharmacia, Inc) before clinical use. The residual concentration of the components of Pres. (18) after the rinsing procedure was then analyzed. The maximum concentrations found were below the detection limit: […]

[2] = cited from earlier work
[3] = neat ethyl paraben; cited from earlier work
[4] = healthy subjects; cited from earlier work
[5] = cited from earlier work; remark: listed apart in the source
[6] = 5 day covered contact in 50 human volunteers, cited from earlier work
[7] = cited from earlier work; remark: listed apart in the source
[8] = cited from earlier work; remark: listed apart in the source
[9] = cited from earlier work; remark: listed apart in the source
[10] = after ingesting 2000 mg/day for 30 days; cited from earlier work

SMILES	Maximal intravenous dose from residuals [1] [mg/kg]	Repeated oral dose (Rat) - 25 weeks: signs of toxicity ([2]; diet containing 2% ethyl paraben, 25 weeks)	Eye irritation (rabbit) [3]	Skin sensitisation (human) [4]	Acute oral LD50 (Rat) [5] [mg/kg]	Skin irritation (human) ([6]; 7% solution in propylene glycol)	Repeated oral dose (Rat) - 96 weeks: dose that gave no visible signs of toxicity or tissue changes in the major organs [2]	Intraperitoneal LD50 (Mouse) [7] [mg/kg]	Acute oral LD50 (Mouse) [8] [mg/kg]	Skin irritation (human) ([6]; 5% solution in Propylene glycol)	Eye irritation (human): time within which irritation and burning sensation disappeared ([9]; solutions containing 0.1-0.3% methyl paraben)	Repeated oral dose (human) [10]	Skin irritation (human) ([6]; 12% solution in Propylene glycol)	Eye irritation (human) ([9]; solution containing 0.01% propyl paraben, contact time of 15 minutes in 60 patients)
CCOC(=O)c1ccc(O)cc1 [Ethyl paraben]	<0.042	paraben gave no visible signs	slight irritation	No evidence of skin	>4300	glycol was non-irritant. (5	–	–	–	–	–	–	–	–
COC(=O)c1ccc(O)cc1 [Methyl paraben]	0.042	–	–	No evidence of skin	–	–	900-1200 mg/kg/day gave no	960	>8000	glycol was non-irritant. (5	disappeared within 1 minute	No obvious toxic effects	–	–
CCCOC(=O)c1ccc(O)cc1 [Propyl paraben]	<0.042	–	–	–	–	–	900-1200 mg/kg/day gave no	640	>8000	–	–	–	glycol was non-irritant. (5	propyl paraben produced no
CC(O)CO (stereo not drawn) [Propylene glycol]	<0.022	–	–	–	–	–	–	–	–	–	–	–	–	–
